In general, LD50 refers to the dose expected to kill half of the subjects tested. A low value points to greater toxicity. What is called ED50 is the dose at which the effect has come halfway, by size or by number of responders. High values mean weaker potency, low ones greater potency.

Drawing on ChEMBL document CHEMBL1126692, “Structure-activity relationships for mitomycins. Application of the distance and charge analysis method” (J Med Chem, 1993), this text covers LD50 and ED50 for nine molecules.

Data set [1] can be described thus: Anti cancer activity was determined as lethal dose. The format is organism-based. Conditions: mouse, in vivo.
The species named for data set [2] is Mus musculus. Kind of data set: Anti cancer activity was determined as effective dose. The class given is functional.

In data set [1], `C=C1C2=C(C(=O)C(C)=C(OC)C2=O)N2C[C@@H]3N[C@@H]3[C@]12OC` showed an LD50 of 13 mg/kg. Further, the ED50 in data set [2] is 7.5 mg/kg.
For `C=C1C2=C(C(=O)C(C)=C(N)C2=O)N2C[C@@H]3N[C@@H]3[C@]12OC`, in that order: 75 mg/kg and 18 mg/kg.
On the same counts, the results for `COC1=C(C)C(=O)C2=C(C1=O)[C@@H](COC(N)=O)[C@@]1(OC)[C@H]3N[C@H]3CN21` [MITOMYCIN A] are 2.1 mg/kg and 1.1 mg/kg.
On the same counts, the results for `C=C1C2=C(C(=O)C(C)=C(OC)C2=O)N2C[C@H]3[C@H](N3C)[C@]12OC` (some centres not stated) [MITOMYCIN G] are 22 mg/kg and 35 mg/kg.
The molecule `C=C1C2=C(C(=O)C(C)=C(OC)C2=O)N2C[C@H]3[C@H](N3C)[C@]12O` (some centres not stated) [MITOMYCIN H] registered an LD50 in data set [1] of 12 mg/kg. In data set [2], the ED50 worked out at 6.8 mg/kg.
As for `C=C1C2=C(C(=O)C(C)=C(N)C2=O)N2C[C@H]3[C@H](N3C)[C@]12OC` (some centres not stated) [MITOMYCIN K], the LD50 in data set [1] was 130 mg/kg. In addition, in data set [2], the 50% effect level (ED50) was put at a dose of 100 mg/kg.
For `C=C1C2=C(C(=O)C(C)=C(N)C2=O)N2C[C@H]3[C@H](N3C)[C@]12O` (some centres not stated) [MITOMYCIN Z], in that order: 210 mg/kg and 82 mg/kg.
Molecule `CO[C@@]12[C@H](COC(N)=O)C3=C(C(=O)C(C)=C(N)C3=O)N1C[C@@H]1N[C@@H]12` [MITOMYCIN] came in with an ED50 in data set [2] of 4.4 mg/kg.
Molecule `CO[C@@]12[C@H](COC(N)=O)C3=C(C(=O)C(C)=C(N)C3=O)N1C[C@H]1[C@@H]2N1C` (some centres not stated) [PORFIROMYCIN] gave an LD50 in data set [1] of 57 mg/kg. Also, the 50% effect level in data set [2] (ED50) was put at a dose of 22 mg/kg.
